Measurements from patent US8354426B2, “Naphthyridine derivative monohydrate and method for producing the same” (Toyama Chemical Co., Ltd., priority 2007, dated 2013).
Where a name gives a salt, the structure may show the parent alone.

Legend:
Hygroscopicity test = assay type: physicochemical; conditions: stored three weeks, room temperature, relative humidity 97%
Excerpt: The compound of the present invention and the comparative compound were stored for three weeks under the conditions of room temperature and the relative humidity of 97%. […] On the other hand, the comparative compound had deliquesced.

[1] = Solubility in phosphate buffer solution; assay type: physicochemical; conditions: aqueous buffer, thermodynamic from solid; 0.2 mol/L phosphate buffer solution (pH 6.5), 25° C., shaken 48 hours
S. aureus FDA209P = test: Susceptibility test (MIC, microtiter broth dilution); assay type: cell-based; conditions: Staphylococcus aureus, CAMHB, overnight at 35° C.
Description: (§1) The compound of the present invention was dissolved in dimethyl sulfoxide and measured for the antibacterial activity (MIC) by a microtiter broth dilution method recommended by Japanese Society of Chemotherapy.
(§2) Staphylococcus aureus (S. aureus Smith, FDA209P, F-3095), Enterococcus faecalis (E. faecalis D-2648) and Escherichia coli (E. coli NIHJ) were used as the bacteria.
(§3) The bacterial cells, grown overnight on a Mueller-Hinton agar: MHA plate at 35° C., were suspended in a sterilized physiological saline so as to be a 0.5 McFarland equivalent standard. The cell suspension was diluted ten-fold to prepare an inoculum. Approximately 0.005 mL of the inoculum was inoculated into a cation-adjusted Mueller-Hinton broth (CAMHB), 100 μL/well containing the test substance and allowed to grow overnight at 35° C. The lowest concentration of the test substance at which no bacterial growth was observed by the naked eye was determined as MIC.

E. coli NIHJ = test: as above; assay type: cell-based; conditions: Escherichia coli, CAMHB, overnight at 35° C.
Description: as §1, §2, §3

S. aureus F-3095 = test: as above; assay type: cell-based; conditions: Staphylococcus aureus, F3095
Description: as §1, §2, §3

E. faecalis D-2648 = test: as above; assay type: cell-based; conditions: Enterococcus faecalis, D2648
Description: as §1, §2, §3

S. aureus Smith = test: as above; assay type: cell-based; conditions: Staphylococcus aureus, CAMHB, overnight at 35° C.
Description: as §1, §2, §3

O=c1ccc2ncc(F)cc2n1CCN1CCC(NCc2cc3c(cn2)OCCO3)CC1 [Comparative Example 1, 1-(2-(4-((2,3-dihydro(1,4)dioxino(2,3-c)pyridin-7-ylmethyl)amino)piperidin-1-yl)ethyl)-7-fluoro-1,5-naphthyridin-2(1H)-one trihydrochloride, reference compound]
Appearance after storage (hygroscopicity / deliquescence) (Hygroscopicity test; trihydrochloride): deliquesced

O=c1ccc2ncc(F)cc2n1CCN1CCC(NCc2cc3c(cn2)OCCO3)CC1 [Example 16, 1-(2-(4-((2,3-dihydro(1,4)dioxino(2,3-c)pyridin-7-ylmethyl)amino)piperidin-1-yl)ethyl)-7-fluoro-1,5-naphthyridin-2(1H)-one monohydrate]
Appearance after storage (hygroscopicity / deliquescence) (Hygroscopicity test; monohydrate): powder with no apparent change
solubility at 48 h [1]: 21.2 mg/mL
MIC (S. aureus FDA209P): 0.0313 µg/mL
MIC (E. coli NIHJ): 0.125 µg/mL
MIC (S. aureus F-3095): 0.0313 µg/mL
MIC (E. faecalis D-2648): 0.25 µg/mL
MIC (S. aureus Smith): 0.0625 µg/mL
